Data from ChEMBL document CHEMBL1201862, “PubChem BioAssay data set” (2004).
Values joined by “and” are separate entries in the source; they are usually repeats but may differ in a detail not shown here. Identical values can stand only once.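 How tested: cells in 96-well plates exposed to compound for 48 hours at five concentrations. At the GI50, growth is halved.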 Active and inactive are the calls of the source. No stated cut-off is given here; in the data, active = GI50 up to about 1.1 µM and inactive = higher.

Columns and labels:
Experiment in all cases: NCI anticancer screen, dose series, 48 h
MDA-N = tested on: MDA-N
MOLT-4 = tested on: MOLT-4
HCT-15 = tested on: HCT-15
HL-60 = tested on: HL-60
MCF7 = tested on: MCF7
SNB-19 = tested on: SNB-19
NCI-H226 = tested on: NCI-H226
HCC 2998 = tested on: HCC 2998
NCI-H522 = tested on: NCI-H522
IGROV-1 = tested on: IGROV-1
SF-295 = tested on: SF-295
OVCAR-5 = tested on: OVCAR-5
TK-10 = tested on: TK-10
BT-549 = tested on: BT-549
SF-539 = tested on: SF-539
KM12 = tested on: KM12
ACHN = tested on: ACHN
CAKI-1 = tested on: CAKI-1
NCI-H460 = tested on: NCI-H460
Malme-3M = tested on: Malme-3M
RPMI-8226 = tested on: RPMI-8226
UO-31 = tested on: UO-31
SK-OV-3 = tested on: SK-OV-3
K562 = tested on: K562
786-0 = tested on: 786-0
SK-MEL-28 = tested on: SK-MEL-28
SK-MEL-5 = tested on: SK-MEL-5
LOX IMVI = tested on: LOX IMVI
OVCAR-3 = tested on: OVCAR-3
NCI/ADR-RES = tested on: NCI/ADR-RES
HT-29 = tested on: HT-29
UACC-62 = tested on: UACC-62
Hs-578T = tested on: Hs-578T
NCI-H23 = tested on: NCI-H23
HOP-62 = tested on: HOP-62
MDA-MB-231 = tested on: MDA-MB-231
SF-268 = tested on: SF-268
SW-620 = tested on: SW-620
UACC-257 = tested on: UACC-257
SN12C = tested on: SN12C
A498 = tested on: A498
SNB-75 = tested on: SNB-75
SK-MEL-2 = tested on: SK-MEL-2
OVCAR-8 = tested on: OVCAR-8
A549 = tested on: A549
PC-3 = tested on: PC-3
M14 = tested on: M14
SR = tested on: SR
T47D = tested on: T47D
DU-145 = tested on: DU-145
MDA-MB-435 = tested on: MDA-MB-435
CCRF-CEM = tested on: CCRF-CEM
U-251 = tested on: U-251
COLO 205 = tested on: COLO 205
EKVX = tested on: EKVX
HCT-116 = tested on: HCT-116

With `N#Cc1c(-c2ccccc2)c(C#N)c(=S)n(C2OCC(O)C(O)C2O)c1N` (stereo not drawn) the GI50 (MDA-N) was > 100 µM (inactive), the GI50 (MOLT-4) was > 100 µM (inactive) and the GI50 (HCT-15) was greater than 100 µM. For the same compound, the GI50 (HL-60) was > 100 µM (inactive), the GI50 (MCF7) was > 100 µM (inactive) and the GI50 (SNB-19) was > 100 µM (inactive). The GI50 (NCI-H226) was > 100 µM (inactive), the GI50 (HCC 2998) was > 100 µM (inactive) and the GI50 (NCI-H522) was > 100 µM (inactive). For the same compound, the GI50 (IGROV-1) was > 100 µM (inactive), the GI50 (SF-295) was > 100 µM (inactive) and the GI50 (OVCAR-5) was > 100 µM (inactive). For the same compound, the GI50 (TK-10) was 30.8 µM (inactive) and 61.5 µM (inactive), the GI50 (BT-549) was > 100 µM (inactive) and the GI50 (SF-539) was > 100 µM (inactive). The GI50 (KM12) was > 100 µM (inactive), the GI50 (ACHN) was > 100 µM (inactive) and the GI50 (CAKI-1) was > 100 µM (inactive). For the same compound, the GI50 (NCI-H460) was > 100 µM (inactive), the GI50 (Malme-3M) was > 100 µM (inactive) and the GI50 (RPMI-8226) was > 100 µM (inactive). For the same compound, the GI50 (UO-31) was > 100 µM (inactive), the GI50 (SK-OV-3) was > 100 µM (inactive) and the GI50 (K562) was > 100 µM (inactive). The GI50 (786-0) was > 100 µM (inactive), the GI50 (SK-MEL-28) was > 100 µM (inactive) and the GI50 (SK-MEL-5) was > 100 µM (inactive). The GI50 (LOX IMVI) was > 100 µM (inactive), the GI50 (OVCAR-3) was > 100 µM (inactive) and the GI50 (NCI/ADR-RES) was > 100 µM (inactive). For the same compound, the GI50 (HT-29) was > 100 µM (inactive), the GI50 (UACC-62) was > 100 µM (inactive) and the GI50 (Hs-578T) was > 100 µM (inactive). For the same compound, the GI50 (NCI-H23) was > 100 µM (inactive), the GI50 (HOP-62) was > 100 µM (inactive) and the GI50 (MDA-MB-231) was > 100 µM (inactive). For the same compound, the GI50 (SF-268) was > 100 µM (inactive), the GI50 (SW-620) was > 100 µM (inactive) and the GI50 (UACC-257) was > 100 µM (inactive). For the same compound, the GI50 (SN12C) was > 100 µM (inactive), the GI50 (A498) was > 100 µM (inactive) and the GI50 (SNB-75) was > 100 µM (inactive). For the same compound, the GI50 (SK-MEL-2) was > 100 µM (inactive), the GI50 (OVCAR-8) was > 100 µM (inactive) and the GI50 (A549) was > 100 µM (inactive). The GI50 (PC-3) was > 100 µM (inactive), the GI50 (M14) was > 100 µM (inactive) and the GI50 (SR) was > 100 µM (inactive). For the same compound, the GI50 (T47D) was 75.9 µM (inactive) and 77.4 µM (inactive), the GI50 (DU-145) was > 100 µM (inactive) and the GI50 (MDA-MB-435) was > 100 µM (inactive). The GI50 (CCRF-CEM) was > 100 µM (inactive).

For `CCCCCCCCCCCC(=O)c1c(O)cc(C)oc1=O`, the GI50 (MDA-N) was 34.6 µM (inactive), the GI50 (MOLT-4) was 23.1 µM (inactive) and the GI50 (HCT-15) was 41.7 µM. The GI50 (HL-60) was 42.4 µM (inactive), the GI50 (MCF7) was 37.8 µM (inactive) and the GI50 (SNB-19) was 62.7 µM (inactive). For the same compound, the GI50 (NCI-H226) was 45.6 µM (inactive), the GI50 (HCC 2998) was 42 µM (inactive) and the GI50 (NCI-H522) was 42.4 µM (inactive). For the same compound, the GI50 (IGROV-1) was 55.5 µM (inactive), the GI50 (SF-295) was 42.8 µM (inactive) and the GI50 (OVCAR-5) was 92.7 µM (inactive). The GI50 (TK-10) was > 100 µM (inactive), the GI50 (BT-549) was 87.1 µM (inactive) and the GI50 (SF-539) was 23.8 µM (inactive). The GI50 (KM12) was 44.9 µM (inactive), the GI50 (ACHN) was 31.5 µM (inactive) and the GI50 (CAKI-1) was 40.4 µM (inactive). The GI50 (NCI-H460) was 57.4 µM (inactive), the GI50 (U-251) was 48.5 µM (inactive) and the GI50 (Malme-3M) was 45 µM (inactive). The GI50 (RPMI-8226) was > 100 µM (inactive), the GI50 (COLO 205) was 26.5 µM (inactive) and the GI50 (UO-31) was 40.6 µM (inactive). For the same compound, the GI50 (SK-OV-3) was 64.6 µM (inactive), the GI50 (K562) was 28.6 µM (inactive) and the GI50 (786-0) was 80.9 µM (inactive). The GI50 (SK-MEL-28) was 75 µM (inactive), the GI50 (SK-MEL-5) was 29 µM (inactive) and the GI50 (EKVX) was 38.5 µM (inactive). The GI50 (LOX IMVI) was 28.1 µM (inactive), the GI50 (OVCAR-3) was 55.5 µM (inactive) and the GI50 (NCI/ADR-RES) was 33.4 µM (inactive). For the same compound, the GI50 (HCT-116) was 45.7 µM (inactive), the GI50 (HT-29) was 66.7 µM (inactive) and the GI50 (UACC-62) was 49.7 µM (inactive). The GI50 (Hs-578T) was 51.6 µM (inactive), the GI50 (NCI-H23) was 34.8 µM (inactive) and the GI50 (HOP-62) was 60 µM (inactive). The GI50 (MDA-MB-231) was 28.8 µM (inactive), the GI50 (SF-268) was 42.2 µM (inactive) and the GI50 (SW-620) was 41.1 µM (inactive). The GI50 (UACC-257) was 57.9 µM (inactive), the GI50 (SN12C) was 33.3 µM (inactive) and the GI50 (A498) was 81.8 µM (inactive). The GI50 (SNB-75) was 36.4 µM (inactive), the GI50 (SK-MEL-2) was 56.4 µM (inactive) and the GI50 (OVCAR-8) was 33.5 µM (inactive). For the same compound, the GI50 (A549) was 27.8 µM (inactive), the GI50 (PC-3) was 27.2 µM (inactive) and the GI50 (M14) was 79.1 µM (inactive). For the same compound, the GI50 (SR) was > 10 µM (inactive), the GI50 (T47D) was 34.8 µM (inactive) and the GI50 (DU-145) was 48.3 µM (inactive). For the same compound, the GI50 (MDA-MB-435) was 49.5 µM (inactive) and the GI50 (CCRF-CEM) was 23.7 µM (inactive).
